Reference: PubChem BioAssay (NCI)
Several values for one entry are separate records, joined by “and”; a condition that tells them apart may be missing. Equal entries are not always repeated.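 Briefly, cells in 96-well plates were exposed to five compound concentrations for 48 h, and endpoints were estimated by linear interpolation. Abbreviation: GI50, concentration required for 50% inhibition of growth. TGI is the concentration that stops growth completely.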 Starred links: 1 amine or outer side, 2 acyl side, 3 side chain; linkers in the order of their positions; H or OH if unused. Positions of bridges follow the written chain, without caps; N, C: chain ends. Non-standard residues stand in square brackets, D forms with d. Residues, ends and D or L forms follow the SMILES beside them. Chains are numbered I, II in the order given. Actinocin(1to9) = Cc1c2oc3c(C)ccc(C(=O)[*:2])c3nc-2c(C(=O)[*:1])c(N)c1=O; NMeV = CN[CH](C(=O)O)C(C)C; Sar = CNCC(=O)O

Experiments:
Assay in all cases: inhibition of tumour cell growth, NCI panel, 48 h
U251 CNS = system: U251 CNS
RXF 393 renal = system: RXF 393 renal
M14 melanoma = system: M14 melanoma
BT-549 breast = system: BT-549 breast
NCI-H460 lung = system: NCI-H460 lung
SK-MEL-28 melanoma = system: SK-MEL-28 melanoma
TK-10 renal = system: TK-10 renal
SK-MEL-5 melanoma = system: SK-MEL-5 melanoma
COLO 205 colon = system: COLO 205 colon
SK-MEL-2 melanoma = system: SK-MEL-2 melanoma
NCI/ADR-RES ovarian = system: NCI/ADR-RES ovarian
HCT-15 colon = system: HCT-15 colon
HL-60(TB) leukemia = system: HL-60(TB) leukemia
IGROV1 ovarian = system: IGROV1 ovarian
LOX IMVI melanoma = system: LOX IMVI melanoma

| SMILES | TGI (U251 CNS) [µM] | TGI (RXF 393 renal) | TGI (M14 melanoma) [µM] | TGI (BT-549 breast) [µM] | TGI (NCI-H460 lung) [µM] | TGI (SK-MEL-28 melanoma) [µM] | TGI (TK-10 renal) [µM] | TGI (SK-MEL-5 melanoma) [µM] | TGI (COLO 205 colon) [µM] | TGI (SK-MEL-2 melanoma) [µM] | TGI (NCI/ADR-RES ovarian) [µM] | TGI (HCT-15 colon) [µM] | TGI (HL-60(TB) leukemia) [µM] | TGI (IGROV1 ovarian) [µM] | TGI (LOX IMVI melanoma) [µM] | GI50 (HCT-15 colon) [µM] |
| --- | --- | --- | --- | --- | --- | --- | --- | --- | --- | --- | --- | --- | --- | --- | --- | --- |
| Nc1ccc2c(O)cc(=O)[nH]c2n1 | > 100 | > 100 µM | > 100 | > 100 | > 100 | > 100 | > 100 | > 100 | > 100 | > 100 | > 100 | > 100 | > 100 | > 100 | – | – |
| CC(C)=CCC[C@]1(C)C=Cc2c(O)c3c(c(CC=C(C)C)c2O1)O[C@]12C(=C[C@@H]4CC1C(C)(C)O[C@@]2(C/C=C(/C)C(=O)O)C4=O)C3=O | 3.31 | 2.34 µM | 3.19 | 7.03 | 3.27 | 3.26 | 2.47 | – | – | 4.13 | 6.96 | – | 0.706 | 2.81 | 4.95 | – |
| CCOC(=O)C(/C(=N/S(=O)(=O)c1cc(C)c(Cl)cc1[S-])[n+]1ccc(N(C)C)cc1)=C(/O)c1ccc([N+](=O)[O-])cc1 | > 100 | > 100 µM | 96.6 | 92.7 | > 100 | 83.5 | 58.7 | > 100 | 90.2 | 28.3 | > 100 | > 100 | 64.5 | > 100 | – | – |
| Cc1ccccc1N=Nc1c(O)c(S(=O)(=O)O)cc2cc(S(=O)(=O)O)ccc12 | > 100 | > 100 µM | > 100 | > 100 | > 100 | > 100 | > 100 | > 100 | > 100 | > 100 | > 100 | > 100 | > 100 | > 100 | – | – |
| C=CCn1c(-c2ccc([N+](=O)[O-])cc2)cs/c1=N\C(P(=O)(O)O)P(=O)(O)O | > 100 | > 100 µM | > 100 | > 100 | > 100 | > 100 | > 100 | > 100 | > 100 | – | > 100 | > 100 | 90.6 | > 100 | > 100 | – |
| Cc1ccc(NC(Nc2ccc(C)cc2C)=C(C(Cl)=C(Cl)Cl)[N+](=O)[O-])c(C)c1 | – | 32.6 µM | 21.3 | 38.8 | 29.7 | 35.2 | 33 | 14.4 | 32 | – | > 100 | 32.3 | 22 | 29.2 | 20.4 | – |
| Cc1c(N2C(=O)/C(=C/c3ccc(Cl)cc3)N=C2c2ccccc2)c(=O)n(-c2ccccc2)n1C | 96.3 | 76.8 µM | > 100 | > 100 | > 100 | – | 60.3 | 34.3 | 30.1 | 39.9 | > 100 | 19.6 | 57 | 88.5 | 35.6 | – |
| CC(=O)C1=C(C)N2C(=NC3=C(CCc4ccccc43)C2c2ccc(F)cc2)S1 (configuration not stated) | > 100 | > 100 µM | > 100 | > 100 | – | > 100 | – | > 100 | > 100 | > 100 | > 100 | – | 92.4 | > 100 | > 100 | – |
| O=C1/C(=C\Oc2ccc(F)cc2)N2CCC1CC2 | > 100 | > 100 µM | > 100 | > 100 | – | > 100 | > 100 | > 100 | > 100 | > 100 | > 100 | > 100 | > 100 | > 100 | > 100 | – |
| COc1cc(NS(C)(=O)=O)ccc1Nc1cc[nH]c2ccc3nccc3c12 | 27.3 | – | 32.2 | 28.7 | 34.5 | 31.2 | 30.3 | 29.8 | 41.4 | 30.9 | > 100 | > 100 | 53.2 | 31.2 | 36 | – |
| COc1c(CC=C(C)C)c(O)c(C(CC(C)C)c2c(O)c3c(c(C(C)=O)c2O)OC(C(C)(C)O)C3)c(O)c1C(C)=O (configuration not stated) | – | 10.9 µM | > 12.5 | 9.49 | – | > 12.5 | – | 4.44 | 8.38 | > 12.5 | 11.1 | > 12.5 | 7.55 | > 12.5 | > 12.5 | – |
| CCC(C)C1NC(=O)C(NC(=O)c2c3nc4c(C(=O)NC5C(=O)NC(C(C)CC)C(=O)N6CCCC6C(=O)N(C)CC(=O)N(C)C(C(C)C)C(=O)OC5C)ccc(C)c4oc-3c(C)c(=O)c2N)C(C)OC(=O)C(C(C)C)N(C)C(=O)CN(C)C(=O)C2CCCN2C1=O (configuration not stated) (I: TIP[Sar][NMeV] / II: TIP[Sar][NMeV]; ester I:1-I:C, II:1-II:C; linker I:N-II:N via Actinocin(1to9); configuration not given here) | 10.9 | 0.0214 µM and 0.048 µM | 0.0272 | 0.58 | – | 0.0152 | 0.0755 | 0.018 | 0.00309 | 0.00277 | 2.63 | 10.3 | 0.0186 | – | – | 0.0109 |
| CCOc1cc(C2SCC(=O)N2c2ccc(Oc3ccc(Cl)cc3)c(Cl)c2)ccc1O (configuration not stated) | 35.7 | – | 56.1 | 31.5 | 39.1 | 38.2 | 34.2 | 31.5 | 41.3 | 32.7 | 36.9 | 37 | 47 | 32 | 38.7 | – |
| CC(=O)Nc1c(S(=O)(=O)c2ccccc2)c(C)c(C)n1CCN(C)C | > 100 | > 100 µM | > 100 | > 100 | > 100 | > 100 | > 100 | > 100 | > 100 | > 100 | > 100 | > 100 | > 100 | > 100 | – | – |
| O=c1ccn(CC2(CO)CCC2)c(=O)[nH]1 | > 100 | > 100 µM | – | > 100 | > 100 | > 100 | > 100 | > 100 | > 100 | > 100 | > 100 | > 100 | > 100 | > 100 | > 100 | – |
